Assay results reported in patent publication US20250099420A1, “SMALL MOLECULE MODULATORS OF GPR139 COMPLEX” (University of Florida Research Foundation, Incorporated, priority 2022, published 2025).
Like-named read-outs stand apart in the source and are kept apart here.

Tests used:
[1] = test system: parental HEK cells; assay: HEK parental Agonist Counterscreen Assay (non-transfected cells); format: cell-based; details: for Averaged Max % Response (±St. Dev.): activity relative to known control
From the text: The high control for the agonist counterscreen was Forskolin not acetylcholine.

[2] = target: T1, GPR139 (Homo sapiens, UniProt Q6DWJ6); assay: GPR139 Agonist titration / agonist counterscreen assay (calcium detection, HEK-GPR139 cells); format: cell-based; design: expressed in transfected cells; host or cells: HEK Aequorin cells, Maxcyte transient transfection; details: GPR139 Agonist Activity; for EC50: read-out: EC50; for Averaged Max % Response (±St. Dev.): activity relative to known control
T1 sequence (Q6DWJ6 1-353): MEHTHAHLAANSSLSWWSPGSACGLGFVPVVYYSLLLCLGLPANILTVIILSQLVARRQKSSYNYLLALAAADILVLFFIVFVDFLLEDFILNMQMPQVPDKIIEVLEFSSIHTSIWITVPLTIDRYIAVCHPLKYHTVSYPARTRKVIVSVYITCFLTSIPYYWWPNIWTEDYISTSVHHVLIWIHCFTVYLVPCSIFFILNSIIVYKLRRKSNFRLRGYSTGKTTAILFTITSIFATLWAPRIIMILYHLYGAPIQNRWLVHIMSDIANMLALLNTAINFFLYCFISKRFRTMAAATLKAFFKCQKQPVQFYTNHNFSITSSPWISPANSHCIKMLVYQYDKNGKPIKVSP
Protocol: GPR activity was assessed using a calcium detection assay. […] Negative control samples were treated with DMSO. […] Intracellular calcium was measured using Calcium 5.

[3] = Homo sapiens, HEK293, HEK Agonist Activity section of Table 4 (parental HEK counterscreen)
[4] = HEK Agonist Activity, parental non-transfected HEK cells
[5] = values printed in E-notation without unit
[6] = HEK Agonist Activity section of Table 4 (parental HEK counterscreen)
[7] = Homo sapiens, HEK293, HEK Agonist Activity, parental non-transfected HEK cells

Row | Lipophilic Efficiency (logD) ([1]; HEK Agonist Activity section) | Lipophilic Efficiency (logP) ([1]; HEK Agonist Activity section) | Averaged Max % Response (±St. Dev.) [2] [%] | Lipophilic Efficiency (logD) ([1]; HEK Agonist Activity) | Lipophilic Efficiency (logP) ([1]; HEK Agonist Activity) | Lipophilic Efficiency (logD) ([2]; based on logD) | Lipophilic Efficiency (logP) ([2]; based on logP) | Hill Slope ([2]; fitted dose-response curve) | Efficiency Ligand ([2]; ligand efficiency) | EC50 [2, 5] [nM] | Structure (SMILES) | Averaged Max % Response (±St. Dev.) ([1]; HEK Agonist Activity section) [%] | Averaged Max % Response (±St. Dev.) ([1]; HEK Agonist Activity) [%] | EC50 [1, 6] [nM] | other results
1 | – | – | 119.91 ± 2.22 | 2.34 | 2.34 | 5.19 | 5.19 | 0.32 | 0.40 | 19.8 | CC(C)CCNC(=O)C1C2C=CC3(CN(Cc4ccccc4Cl)C(=O)C13)O2 (stereo not drawn) [SR-01000104567] | – | 8.02 ± 5.87 | – | EC50 [1, 4]: > 14100 nM
2 | 3.22 | 3.22 | 75.62 ± 16.43 | – | – | – | – | – | – | – | Cc1cc(NC(=O)Cn2ncc3c2-c2ccccc2OC3)no1 [SR-01000098884] | 0.57 ± 13.32 | – | > 14100 | Efficiency Ligand [2]: 0.35; Hill Slope [2]: 0.72; Lipophilic Efficiency (logD) [2]: 4.12; Lipophilic Efficiency (logP) [2]: 4.12; EC50 ([2]; HEK-GPR139 cells): 1800 nM
3 | 0.66 | 0.66 | 116.95 ± 4.02 | – | – | 3.05 | 3.05 | – | 0.33 | – | COCCn1c(C)c(C(=O)NC(C)CCc2ccccc2)c2nc3ccccc3nc21 (stereo not drawn) [SR-01000918134] | −11.92 ± 3.45 | – | – | EC50 [1, 3]: > 14100 nM
4 | 1.08 | 1.08 | 108.92 ± 9.07 | – | – | 3.26 | 3.26 | 0.44 | 0.36 | 93.2 | COc1ccc(CCNC(=O)c2cccc(-c3ccc(OC)nc3)c2)cc1 [SR-01000652579] | 11.17 ± 6.82 | – | > 14200 | –
5 | – | – | 106.05 ± 9.09 | 1.52 | 1.48 | 4.30 | 4.27 | 0.91 | 0.43 | 23 | COc1ccccc1C(=O)NNC(=O)C(C)Oc1ccc(Cl)cc1Cl (stereo not drawn) [SR-01000356020] | – | 1.37 ± 3.30 | – | EC50 [1, 7]: > 14100 nM

Second part, the compound before the results:

Row | Structure (SMILES) | Lipophilic Efficiency (logD) ([1]; HEK Agonist Activity section) | Lipophilic Efficiency (logP) ([1]; HEK Agonist Activity section) | Averaged Max % Response (±St. Dev.) [2] [%] | Lipophilic Efficiency (logD) ([1]; HEK Agonist Activity) | Lipophilic Efficiency (logP) ([1]; HEK Agonist Activity) | Lipophilic Efficiency (logD) ([2]; based on logD) | Lipophilic Efficiency (logP) ([2]; based on logP) | Hill Slope ([2]; fitted dose-response curve) | Efficiency Ligand ([2]; ligand efficiency) | EC50 [2, 5] [nM] | Averaged Max % Response (±St. Dev.) ([1]; HEK Agonist Activity section) [%] | Averaged Max % Response (±St. Dev.) ([1]; HEK Agonist Activity) [%] | EC50 [1, 6] [nM] | other results
6 | CC(=O)N1CCSc2cc(S(=O)(=O)NC3CCC(C)CC3)ccc21 (stereo not drawn) [SR-01000141798] | 2.66 | 2.66 | 62.31 ± 7.50 | – | – | – | – | – | – | – | 2.60 ± 1.15 | – | – | EC50 [1, 3]: > 14100 nM; Efficiency Ligand [2]: 0.31; Hill Slope [2]: 0.65; Lipophilic Efficiency (logD) [2]: 3.15; Lipophilic Efficiency (logP) [2]: 3.15; EC50 ([2]; HEK-GPR139 cells): 4600 nM
7 | COc1ccc(C2(C)NC(=O)N(CC(=O)NC3CCCC3)C2=O)cc1 (stereo not drawn) [SR-01000918718] | – | – | 106.93 ± 8.46 | 3.62 | 3.62 | 6.47 | 6.47 | 0.93 | 0.43 | 19.9 | – | 16.28 ± 3.44 | – | EC50 [1, 4]: > 14100 nM
8 | CC(C)(C)n1c2c(c(=O)[nH]c1=O)C(NC(=O)CCC1CCCCC1)(C(F)(F)F)C(=O)N2 (stereo not drawn) [SR-01000091502] | 2.63 | 2.59 | 88.58 ± 8.42 | – | – | 4.63 | 4.59 | 0.85 | 0.31 | 141 | −12.00 ± 4.68 | – | > 14100 | –
9 | CC(=O)c1cccc(C(C)(C)CC(=O)CNC(=O)c2ccccc2)c1 [SR-01000031674] | – | – | 113.33 ± 7.65 | 2.46 | 2.46 | 6.57 | 6.57 | 0.44 | 0.50 | – | – | 35.54 ± 2.15 | – | EC50 [1, 7]: > 15000 nM
